Experiment [1] concerns Fas. As to the kind of experiment: Inhibition of Fas expression on Jurkat cells by cycloheximide. The experiment is classed as cell-based, human. The note with it: Jurkat cells, 0.1 μg/ml cycloheximide. The method, then:
(§1) Fas and FasL expression were measured by flow cytometry using anti-Fas FITC-conjugated monoclonal antibodies and anti-FasL PE-conjugated monoclonal antibodies in a FACScalibur Flow Cytometer (Becton Dickinson, San Jose, Calif., USA) using the CELLQuest program (Becton Dickinson).
(§2) Results are expressed as percentage (%) increase in the expression of Fas and of FasL measured on treated cells compared to control cells.
Jurkat human leukemia T cells were pre-incubated with 0.0 μg/ml (−CHX) or with 0.1 μg/ml of cycloheximide (+CHX) for 1 h. Ten μg/ml or 100 μg/ml of 6 base SEQ ID NO:5 (GGGTGG) was added to both the −CHX and +CHX cells and the incubation was continued for 24 hours and for 48 hours (Table 10).

For experiment [2], the system named is Fas. As to the kind of experiment: Fas expression at the cell surface by flow cytometry, T-24 cells. The experiment is classed as cell-based, human. The note with it: T-24 bladder cancer cells, 100 μg/ml sequence, 48 h, treated vs control cells. As for the experimental part:
(§3) Cancer cells and PBMCs were seeded in 6 well flat-bottom microplates and were maintained at 37° C. in a 5% CO2 atmosphere. Unless stated otherwise, 2×10^5 cells/ml were incubated for 48 h with 0 μg/ml (control) or 100 μg/ml ([…]) (treated) of the sequences.
as §1, §2
(§4) T-24 bladder cancer cells are a p53 mutated human cell line T-24 cells (1.0×10^5 cells/ml) were incubated with the 6 base sequences shown in Table 4.

The test system of experiment [3] is Fas. As to the kind of experiment: Fas expression at the cell surface by flow cytometry, LNCaP cells. The experiment is classed as cell-based, human. The note with it: LNCaP prostate cancer cells, 100 μg/ml sequence, 48 h, treated vs control cells. As for the experimental part:
as §3, §1, §2
(§5) LNCaP prostate cancer cells are a TGF-beta 1 receptor negative, […], metastatic human solid tumor model.
A general note: In flow cytometry, cells or beads pass a laser one at a time.

Experiment [4] relates to FasL. As to the kind of experiment: FasL expression at the cell surface by flow cytometry, PBMCs. The experiment is classed as cell-based, human. The note with it: 100 μg/ml sequence, 48 h, treated vs control cells. The method, then:
(§6) Peripheral blood mononuclear cells (hereinafter, “PBMCs”) were isolated from human blood by Ficoll-Hypaque (Amersham Pharmacia Biotech, Baie d'Urfée, Québec, Canada) density gradient centrifugation.
as §3, §1, §2

In experiment [5] the test system is Fas. As to the kind of experiment: Fas expression at the cell surface by flow cytometry, UMUC-3 cells. The experiment is classed as cell-based, human. The note with it: UMUC-3 bladder cancer cells, 100 μg/ml sequence, 48 h, treated vs control cells. As for the experimental part:
as §3, §1, §2
(§7) UMUC-3 bladder cancer cells are a P-glycoprotein overexpressing human cell line.

In experiment [6] the test system is EL-4 murine T lymphoma cells. As to the kind of experiment: EL-4 murine T lymphoma implanted in C57/BL6 lpr/lpr mice. The experiment is classed as in vivo. As for the experimental part:
EL-4 murine T lymphoma cells are implanted into C57/BL6 lpr/lpr (Fas negative mice). The mice are divided into 30 groups of 10 mice. On day 0, group 1 mice receive saline, group 2 mice receive 1, 10 or 100 mg/kg of SEQ. ID NO:5, group 3 mice receive 1, 10 or 100 mg/kg of SEQ. ID NO:16, group 4 receive 1, 10 or 100 mg/kg of SEQ. ID NO:17, group 5 mice receive 1, 10 or 100 mg/kg of SEQ. ID NO: 18, group 6 mice receive anti-Fas antibodies, group 7 mice receive 1, 10 or 100 mg/kg of SEQ. ID NO:5 +anti-Fas antibodies, group 8 mice receive 1, 10 or 100 mg/kg of SEQ. ID NO: 16 +anti-Fas antibodies, group 9 receive 1, 10 or 100 mg/kg of SEQ. ID NO:17 +anti-Fas antibodies, group 10 mice receive 1, 10 or 100 mg/kg of SEQ. ID NO:18 +anti-Fas antibodies. In these different groups, anti-Fas antibodies are administered at any dose in the range of about 0.003 to about 0.3 mg/kg. […] The efficacy of the SEQ. ID NO:5, the SEQ. ID NO: 16 and the SEQ. ID NO: 17 is dose-dependent.

For experiment [7], the system named is FasL. Put plainly: FasL expression at the cell surface by flow cytometry, LNCaP cells. The experiment is classed as cell-based, human. The note with it: LNCaP prostate cancer cells, 100 μg/ml sequence, 48 h, treated vs control cells. As for the experimental part:
as §3, §1, §2, §5

For experiment [8], the system named is FasL. Put plainly: FasL expression at the cell surface by flow cytometry, T-24 cells. The experiment is classed as cell-based, human. The note with it: T-24 bladder cancer cells, 100 μg/ml sequence, 48 h, treated vs control cells. The method, then: as §3, §1, §2, §4
Experiment [9] deals with FasL. As to the kind of experiment: FasL expression at the cell surface by flow cytometry, OVCAR-3 cells. The experiment is classed as cell-based, human. The note with it: OVCAR-3 ovarian cancer cells, 100 μg/ml sequence, 48 h, treated vs control cells. The method, then:
as §3, §1, §2
(§8) OVCAR-3 ovarian cancer cells are a p53 mutated, p21/waf-1/Cip deleted, metastatic human solid tumor model.

Experiment [10] has as its system Fas. Put plainly: Fas expression at the cell surface by flow cytometry, SK-OV-3 cells. The experiment is classed as cell-based, human. The note with it: SK-OV-3 ovarian cancer cells, 100 μg/ml sequence, 48 h, treated vs control cells. As for the experimental part: as §3, §1, §2
(§9) SK-OV-3 ovarian cancer cells are a p53 mutated, p21/waf-1/Cip deleted, p15^ink4B,p16^ink4 deleted metastatic human solid tumor model.

Experiment [11] has as its system FasL. As to the kind of experiment: FasL expression at the cell surface by flow cytometry, SK-OV-3 cells. The experiment is classed as cell-based, human. The note with it: SK-OV-3 ovarian cancer cells, 100 μg/ml sequence, 48 h, treated vs control cells. The method, then: as §3, §1, §2, §9
Experiment [12] concerns FasL. As to the kind of experiment: FasL expression at the cell surface by flow cytometry, Jurkat cells. The experiment is classed as cell-based. The note with it: Jurkat human leukemia T cells, 100 μg/ml sequence, 48 h, treated vs control cells. The method, then: as §3, §1, §2
(§10) Jurkat human leukemia T cells are an atypical multi-drug resistant human suspension tumor cell model.

In a further experiment the test system is EAE. Put plainly: EAE in (SJL/J×PL/J) F1 mice induced with myelin basic protein. The experiment is classed as in vivo. The method, then: Female (SJL/J×PL/J) F1 mice are injected subcutaneously in both femoral regions with an emulsion containing 0.5 mg of myelin basic protein (MBP) mixed with complete Freund's adjuvant. After 24 h, 400 ng of Bordetella pertussis toxin is administered intraperitoneally. On the day of onset (day 0), group 1 mice receive saline, group 2 mice receive 1, 10 or 100 mg/kg of SEQ. ID NO:5, group 3 mice receive 1, 10 or 100 mg/kg of SEQ. ID NO:16, group 4 mice receive 1, 10 or 100 mg/kg of SEQ. ID NO:17, group 5 mice receive 1, 10 or 100 mg/kg of SEQ. ID NO: 18, group 6 mice receive anti-Fas antibodies, group 7 mice receive 1, 10 or 100 mg/kg of SEQ. ID NO:5 +anti-Fas antibodies, group 8 mice receive 1, 10 or 100 mg/kg of SEQ. ID NO:16 +anti-Fas antibodies, group 9 receive 1, 10 or 100 mg/kg of SEQ. ID NO:17 +anti-Fas antibodies, group 10 mice receive 1, 10 or 100 mg/kg of SEQ. ID NO: 18 +anti-Fas antibodies for 3 days by intracistemal administration (20 μg/day). In these different groups, anti-Fas antibodies are administered at any dose in the range of about 0.003 to about 0.3 mg/kg. […] The efficacy of the SEQ. ID NO:5, the SEQ. ID NO: 16 and the SEQ. ID NO: 17 is dose-dependent.

Experiment [13] deals with FasL. Put plainly: FasL expression at the cell surface by flow cytometry, MCF-7 cells. The note with it: MCF-7 breast cancer cells, 100 μg/ml sequence, 48 h, treated vs control cells. The experiment is classed as cell-based, human. The method, then:
as §3, §1, §2
(§11) MCF-7 human breast cancer cells are a caspase-3 negative, estrogen-dependent human solid tumor model.

The test system of experiment [14] is FasL. Put plainly: FasL expression at the cell surface by flow cytometry, UMUC-3 cells. The experiment is classed as cell-based, human. The note with it: UMUC-3 bladder cancer cells, 100 μg/ml sequence, 48 h, treated vs control cells. As for the experimental part: as §3, §1, §2, §7
In experiment [15] the test system is Fas. As to the kind of experiment: Fas expression at the cell surface by flow cytometry, PBMCs. The experiment is classed as cell-based, human. The note with it: 100 μg/ml sequence, 48 h, treated vs control cells. As for the experimental part: as §6, §3, §1, §2
The test system of experiment [16] is Fas. As to the kind of experiment: Fas expression at the cell surface by flow cytometry, MCF-7 cells. The experiment is classed as cell-based, human. The note with it: MCF-7 breast cancer cells, 100 μg/ml sequence, 48 h, treated vs control cells. As for the experimental part:
as §3, §1, §2, §11

In experiment [17] the test system is Fas. Put plainly: Fas expression at the cell surface by flow cytometry, OVCAR-3 cells. The experiment is classed as cell-based, human. The note with it: OVCAR-3 ovarian cancer cells, 100 μg/ml sequence, 48 h, treated vs control cells. As for the experimental part: as §3, §1, §2, §8
Experiment [18] concerns Fas. As to the kind of experiment: Fas expression at the cell surface by flow cytometry, Jurkat cells. The experiment is classed as cell-based. The note with it: Jurkat human leukemia T cells, 100 μg/ml sequence, 48 h, treated vs control cells. As for the experimental part: as §3, §1, §2, §10

On to `C[C@@H]1C[C@@H]([C@H](O)CC2CC(=O)NC(=O)C2)C(=O)[C@@H](C)C1` [cycloheximide, reference compound], for which the “decrease of Fas expression by cycloheximide” value with Fas [1] (with 10 μg/ml of SEQ ID NO:5, after 24 h) stood at 92%; with Fas [1] (with 10 μg/ml of SEQ ID NO:5, after 48 h), 44%; in the experiment with Fas [1] (with 100 μg/ml of SEQ ID NO:5, after 24 h), 65%; with Fas [1] (with 100 μg/ml of SEQ ID NO:5, after 48 h), 23%.

As to GGGAGG [SEQ ID NO:17], the “% INCREASE Fas” value with Fas [2] is 124%; with Fas [3] it was 48%; in the experiment with Fas [5], 39%; in the experiment with Fas [10], −6%; in the experiment on Fas [15], 266%; in the experiment with Fas [16], 127%. Besides, the “% INCREASE Fas” value is 49% in the experiment with Fas [17] and 77% in the experiment with Fas [18]. The “% INCREASE FasL” value with FasL [4] is reported as 356%; in the experiment on FasL [7], 55%; with FasL [8] it was 75%; in the experiment with FasL [9], 59%; with FasL [11], −16%; with FasL [12], 91%. Moreover, the entries for the “% INCREASE FasL” value in the experiment with FasL [13] and in the experiment on FasL [14] were 194% and 106%, respectively. The “efficacy, dose dependence” value in experiment [6] (1, 10 or 100 mg/kg) is listed as “dose-dependent”; in the experiment with EAE (1, 10 or 100 mg/kg), “dose-dependent”. For the same molecule, the tumor mass entry in experiment [6] (sequence 1, 10 or 100 mg/kg + anti-Fas antibodies, vs all other groups) is reported as “least tumor mass”; in [6] (single agent (sequence 1, 10 or 100 mg/kg, or anti-Fas antibodies) vs group 1 (saline)), “less tumor mass”. Further, the “progression of EAE” value with EAE (sequence 1, 10 or 100 mg/kg + anti-Fas antibodies, for 3 days) is listed as “least progression of EAE”.

In the case of TGGTTG [SEQ ID NO:9], the “% INCREASE Fas” value with Fas [2] came out at 180%; with Fas [3] it was 184%; in the experiment with Fas [5] it was 143%; with Fas [10], 63%; with Fas [15], 1043%; in the experiment with Fas [16], 255%. Moreover, the figures for the “% INCREASE Fas” value with Fas [17] and in the experiment on Fas [18] were 221% and 362%, respectively. The “% INCREASE FasL” value with FasL [4] was determined as 1322%; in the experiment on FasL [7], 241%; in the experiment on FasL [8] it was 397%; in the experiment on FasL [9], 270%; in the experiment with FasL [11], 53%; in the experiment with FasL [12], 952%. Also, the entries for the “% INCREASE FasL” value with FasL [13] and in the experiment with FasL [14] were 481% and 300%, respectively.

Source of the values: US20020091095A1, “Modulation of Fas and FasL expression” (priority 1999, published 2002).
